Laboratory results: patent publication US12448382B2, “Heterocyclic compounds for mediating tyrosine kinase 2 activity” (GUANGZHOU INNOCARE PHARMA TECH CO., LTD., priority 2019, dated 2025)

Legend:
[1] = target: T1, human recombinant JAK2 protein (Homo sapiens, UniProt O60674); experiment: JAK2 Inhibition Assay (HTRF kinase assay); assay type: biochemical; settings: human recombinant JAK2, 2.5 μM ATP substrate solution
T1 construct: purchased Carna Biosciences 08-045
Outline: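 Recombinant human JAK2 was preincubated 15 min at room temperature with compound in buffer containing 5 mM MgCl2, 1 mM DTT and 0.01% Brij35. Substrate solution (2.5 μM ATP, 0.25 μM biotinylated TK substrate) was then added for 30 min. Phosphorylation was detected by HTRF (665/620 nm ratio; no-enzyme = 100% inhibition), and IC50 was fitted from an 8-point, 4-fold series.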

[2] = target: T2, human recombinant TYK2 protein (Homo sapiens, UniProt P29597); experiment: TYK2 Inhibition Assay (HTRF kinase assay); assay type: biochemical; settings: human recombinant TYK2, 11.25 μM ATP substrate solution
T2 construct: purchased Carna Biosciences 08-147
T2 sequence (P29597 871-1187 limits assumed): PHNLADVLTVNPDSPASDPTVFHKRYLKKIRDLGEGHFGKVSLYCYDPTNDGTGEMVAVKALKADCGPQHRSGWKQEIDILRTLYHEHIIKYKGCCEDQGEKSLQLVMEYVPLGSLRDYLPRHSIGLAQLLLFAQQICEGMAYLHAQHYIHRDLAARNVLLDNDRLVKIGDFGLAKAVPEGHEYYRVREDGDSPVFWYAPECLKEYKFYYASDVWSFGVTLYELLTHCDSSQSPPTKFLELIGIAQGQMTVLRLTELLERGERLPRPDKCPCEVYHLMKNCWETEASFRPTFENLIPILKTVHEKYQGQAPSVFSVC
Outline: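 Recombinant human TYK2 was pre-incubated 15 min at room temperature with compound, then reacted for 40 min with biotinylated tyrosine-kinase substrate and ATP (substrate solution 11.25 μM ATP, 0.5 μM substrate; 5 mM MgCl2, 0.01% Brij35). Phosphorylation was read by HTRF 665/620 ratio, normalised to no-enzyme and no-compound controls, and IC50 was fitted from 8 4-fold dilutions.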

[3] = system: IL-12-induced IFN-γ secretion in NK92 cells; experiment: Inhibition of IL-12-induced IFN-γ Secretion in NK92 Cells (ELISA); assay type: cell-based, human; settings: Homo sapiens, 24 hours incubation, 8 concentration points, read-out: IC50 (NK92_IL12/IFNγ)
Protocol: Inhibition of IL-12-induced IFN-γ Secretion in NK92 Cells
The effect of the compounds of the present invention on IFN-γ secretion induced by IL-12 in NK92 cells was evaluated by an enzyme-linked immunosorbent assay (ELISA).
IL-12 receptor is mainly expressed in activated T-cells, NK cells (NK92 is a NK cell line), DC cells, and B-cells. When binding to IL-12, it activates JAK2/TYK2 signal transduction pathway within NK cells and T lymphocytes, thereby inducing secretion of IFN-γ.
The experimental method is generally described below:
The test compound was dissolved in DMSO to 2.5 mM, followed by a serial 4-fold dilution with DMSO to a minimum concentration of […]. Each concentration was further diluted 50-fold with an FBS-free MEMα medium (Gibco, 12561-056).
NK92 cells (Nanjing Cobioer, CBP60980) were cultured in a complete MEMα medium containing 12.5% FBS (Ausbian, VS500T), 12.5% horse serum (Gibco, 16050-122), 0.02 mM folic acid (Sigma, F8758), 0.2 mM inositol (Sigma, 17850), 0.55 mM β-mercaptoethanol (Gibco, 21985-023), 200 U/mL IL-2 (R&D Systems, 202-1L), and 100 U/mL penicillin (Thermofisher, 15140122). When covering 80-90% of the culture container surface, the cells were dispersed and plated on a 96-well plate (Thermofisher, 167425) with 100,000 cells per well (80 μL of the complete MEMα medium without IL-2). The 96-well plate was then incubated overnight in a 37° C./5% CO2 incubator.
After overnight incubation, 10 μL of the test compound and 10 μL of 50 ng/mL IL-12 (R & D Systems, 219-1L) were added to each well and mix gently, and the 96-well plate was incubated in the 37° C./5% CO2 incubator for additional 24 hours. The plate as centrifuged at 800 rpm for 10 minutes at room temperature and 50 μL of the supernatant from each well was transferred to another 96-well plate (Sigma, CLS3695) coated with anti-IFN-γ antibody. The amount of IFN-γ secretion was detected following the instruction from the Human IFN-γ DuoSet ELISA kit (R & D Systems, DY285B). In the experiment, the group with IL-12 and the test compound being replaced with the MEMα medium was the non-stimulated control group (100% inhibition), and the group with IL-12 and 0.2% DMSO was the stimulated group (0% inhibition). The percentage of inhibition on IL-12 induced IFN-γ secretion in NK-92 cells by the test compound was calculated using the following formula: Percentage of inhibition=100−100*(signalcompound−signalnon-stimulated control)/(signalstimulated control−signalnon-stimulated control)
The IC50 value of the test compound was calculated front 8 concentration points using the XLfit software (ID Business Solutions Ltd., UK) by the following formula: Y=Bottom+(Top−Bottom)/(1+10^((log IC50−X)×slope factor))
Where Y was the percentage of inhibition, X was the logarithm of the concentration of the test compound, Bottom was the bottom plateau value of the S-shaped curve, Top was the top plateau value of the S-shaped curve, and slope factor was the slope coefficient of the curve.

T1 sequence (O60674 826-1132 limits assumed): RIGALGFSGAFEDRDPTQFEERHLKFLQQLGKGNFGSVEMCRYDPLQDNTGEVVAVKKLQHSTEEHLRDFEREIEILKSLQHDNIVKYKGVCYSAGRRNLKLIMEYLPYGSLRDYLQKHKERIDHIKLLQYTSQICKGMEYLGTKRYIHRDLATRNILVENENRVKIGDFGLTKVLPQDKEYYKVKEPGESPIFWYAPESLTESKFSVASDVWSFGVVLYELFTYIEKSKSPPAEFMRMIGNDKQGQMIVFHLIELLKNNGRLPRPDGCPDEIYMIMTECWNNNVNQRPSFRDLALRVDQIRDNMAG

Structure (SMILES)	IC50 [1]	IC50 [2]	IC50 [3]
Cn1cc(Nc2ncc(Cl)c(N3C[C@]4(C)CN(C(=O)CC#N)C[C@]4(C)C3)n2)cn1 [Compound 20, 3-((3aR,6aS)-5-(5-chloro-2-((1-methyl-1H-pyrazol-4-yl)amino)pyrimidin-4-yl)-3a,6a-dimethylhexahydropyrrolo[3,4-c]pyrrol-2(1H)-yl)-3-oxopropanenittile]	1.2 nM	0.5 nM	233 nM
CN1CCC(n2cc(Nc3ncc(Cl)c(N4C[C@]5(C)CN(C(=O)C6CC6)C[C@]5(C)C4)n3)cn2)CC1 [Compound 16, ((3aR,6aS)-5-(5-chloro-2-((1-(1-methylpiperidin-4-yl)-1H-pyrazol-4-yl)amino)pyrimidin-4-yl)-3a,6a-dimethylhexahydropyrrolo[3,4-c]pyrrol-2(1H)-yl)(cyclopropyl)methanone]	0.9 nM	1.2 nM	1010 nM
Cn1cc(Nc2ncc(Cl)c(N3C[C@]4(C)CN(Cc5cc[nH]n5)C[C@]4(C)C3)n2)cn1 [Compound 81, 4-((3aR,6aS)-5-((1H-pyrazol-3-yl)methyl)-3a,6a-dimethylhexahydropyrrolo[3,4-c]pyrrol-2(1H)-yl)-5-chloro-N-(1-methyl-1H-pyrazol-4-yl)pyrimidin-2-amine]	16 nM	50 nM	3970 nM
Cn1cc(Nc2ncc(Cl)c(N3C[C@]4(C)CN(c5ccno5)C[C@]4(C)C3)n2)cn1 [Compound 66]	0.3 nM	0.2 nM	66 nM
Cn1cc(Nc2ncc(Cl)c(N3C[C@]4(C)CN(CC5CC5)C[C@]4(C)C3)n2)cn1 [Compound 84, 5-chloro-4-((3aR,6aS)-5-(cyyclopropylmethyl)-3a,6a-dimethylhexahydropyrrolo[3,4-c]pyrrol-2(1H)-yl)-N-(1-methyl-1H-pyrazol-4-yl)pyrimidin-2-amine]	477 nM	186 nM	8750 nM
Cn1cc(Nc2ncc(Cl)c(N3C[C@@H]4CN(Cc5ccno5)C[C@]4(C)C3)n2)cn1 (racemic) [Compound 74, cis-5-chloro-4-(5-(isoxazol-5-ylmethyl)-3a-methylhexahydropyrrolo[3,4-c]pyrrol-2(1H)-yl)-N-(1-methyl-1H-pyrazol-4-yl)pyrimidin-2-amine]	2.4 nM	1.6 nM	209 nM
CCNC(=O)c1ccc(Nc2ncc(F)c(N3C[C@]4(C)CN(C(=O)C5CC5(F)F)C[C@]4(C)C3)n2)cc1 (stereo partly drawn) [Compound 10, 4-((4-((3aR,6aS)-5-(2,2-difluorocyclopropane-1-carbonyl)-3a,6a-dimethylhexahydropyrrolo[3,4-c]pyrrol-2(IH)-yl)-5-fluoropyrimidin-2-yl)amino)-N-ethylbenzamide]	15 nM	2.4 nM	3800 nM
Cc1cnc(Nc2cnn(C)c2)nc1N1C[C@@H]2CN(C(=O)C3CC3)C[C@]2(C)C1 (racemic) [Compound 70, cis-cyclopropyl(3a-methyl-5-(5-methyl-2-((1-methyl-1H-pyrazol-4-yl)amino)pyrimidin-4-yl)hexahydropyrrolo[3,4-c]pyrrol-2(1H)-yl)methanone]	17 nM	5.3 nM	1200 nM
Cn1cc(Nc2ncc(Cl)c(N3C[C@H]4CN(C(=O)[C@@H]5CC5(F)F)C[C@@]4(C)C3)n2)cn1 [Compound 91, ((3aR,6aS)-5-(5-chloro-2-((1-methyl-1H-pyrazol-4-yl)amino)pyrimidin-4-yl)-3a-methylhexahydropyrrolo[3,4-c]pyrrol-2(1H)-yl)((S)-2,2-difluorocyclopropyl)methanone]	2.6 nM	3.2 nM	388 nM
C[C@@]12CN(C(=O)C3CC3)C[C@]1(C)CN(c1nc(Nc3cnn(C(F)F)c3)ncc1Cl)C2 [Compound 30, ((3aR,6aS)-5-(5-chloro-2-((1-(difluoromethyl)-1H-pyrazol-4-yl)amino)pyrimidin-4-yl)-3a,6a-dimethylhexahydropyrrolo[3,4-c]pyrrol-2(1H)-yl)(cyclopropyl)methanone]	4.6 nM	1.4 nM	1210 nM
